The text below walks through data of patent publication EP2712863B1, “Novel inhibitors of bacterial biofilms and related methods” (Sequoia Sciences, Inc., priority 2012, dated 2014).

The subject of data set [1] is P. aeruginosa. Nature of the data set: Biofilm growth assay (spreading biofilm on semi-solid agar). It counts as cell-based. On the set-up: P. aeruginosa (n=10): unit not given here. Particulars: for P. aeruginosa (n=10): Table 6, inhibitory concentration in the biofilm growth assay, n = number of isolates tested; for IC85: Pseudomonas aeruginosa.
Data set [2] concerns E. coli. The description is as above. It counts as cell-based. Details: E. coli (n=10): unit: ug/mL. The conditions noted are these: for E. coli (n=10): Table 6, inhibitory concentration in the biofilm growth assay, n = number of isolates tested; for IC85: Escherichia coli. In a few lines:
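Spreading (swarming) biofilm on semi-solid agar: E. coli on LB with 0.6% agar and 0.5% glucose; P. aeruginosa on M8 agar with 0.2% glucose, 100 µM CaCl2, 1 mM MgSO4, 0.5% Casamino acids. Compound in medium; 5 µL overnight culture spotted centrally, 37°C overnight. Value: concentration (µg/ml) giving ≥85% reduction in spread area versus negative control.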

Data set [3] concerns Burkholderia cepacia. Nature of the data set: Biofilm growth assay, multiple isolates. It counts as cell-based. Particulars: Table 6; inhibitory concentration in the biofilm growth assay; n = number of isolates tested. The protocol: (§1) The biofilm growth assay was carried out to measure swarming or biofilm spreading on semi-solid agar media in round plates (for example, 100 × 15 mm), also referred to as Petri dishes. For E. coli, the plates contained LB medium with 0.6% agar and 0.5% glucose. P. aeruginosa plates were made with M8 agar supplemented with 0.2% glucose, 100 µM CaCl2, 1 mM MgSO4, and 0.5% Casamino acids. The agar plates of this assay consisted of 0.4% to 0.7% agar (Bacto or Noble agar), although other media may also be used as described in the literature and known to those skilled in the art. Test compounds at the desired concentration were added to the cooled, autoclaved media. Portions of the media were then poured into the plates (20 mL/plate), and the plates allowed to dry at room temperature for approximately 3 to 4 hours. Alternatively, however, plates may be dried in a laminar flow hood for approximately fifteen to twenty minutes. Overnight cultures were grown in a 37°C shaker in LB (E. coli) or TSB (P. aeruginosa). Plates were inoculated by placing 5 µL of the appropriate overnight culture in the centers of the plates. The plates then were incubated overnight at 37°C. The area of the zone of spreading bacteria was then measured and replicates are averaged. Percent inhibition was calculated as 100 × (area without compound - area with compound)/(area without compound). An active compound was considered that which reduces the area of the spreading biofilm compared to negative controls by greater than or equal to 85%. The values shown in Table 1 are the concentrations of compounds (µg/ml) tested in the biofilm growth assay that reduce the area of the spreading biofilm compared to negative controls by greater than or equal to 85% unless noted differently in Table 1. A > ("greater than" symbol) as used in Table 1 is well understood to those skilled in the art as an indication that the listed concentration was not effective at this concentration.
(§2) Table 6, below, lists the inhibitory concentrations of select compounds and antibiotics in the biofilm growth assay against various gram-negative bacterial biofilms. "N" means the number of isolates of bacteria tested. The biofilm growth assay procedure detailed in Example I, above, was followed. Burkholderia cepacia used media consisting of M9 salts, 100 µM CaCl2, 1 mM MgS04, and 0.7% citrate in 0.4% Noble agar. Salmonella spp. used media consisting of Nutrient Broth with 0.5% glucose in 0.5% Noble agar.

Data set [4] relates to Salmonella spp. Description: Biofilm growth assay, multiple isolates. It counts as cell-based. Particulars: Table 6; inhibitory concentration in the biofilm growth assay; n = number of isolates tested. The protocol: as §1, §2
Data set [5] is described as follows: Bioavailability in mice (serum level after oral or IP administration). In kind it is in vivo. The conditions noted are these: orally or via IP injection at approximately 20 mg/kg to 50 mg/kg; 30 minutes or 1 hour after administration. The protocol:
The bioavailabilities of certain compounds were examined in mice. Administration of the compounds was performed orally and by intraperitoneal (IP) injection using a vehicle as known to those skilled in the art. Many vehicles can be used to examine bioavailability. Prior to administration, each vehicle was optimized based on compound solubility according to the formulation research conducted by Uckun et al. (Arznelmittel-Forschung (Drug Research) 2007; 57(4):218-226). […] The concentration of PEG400 is modulated depending upon solubility of the compounds and the amount of aqueous phase added (0.02 M citrate and 0.9% NaCl).

A short description of data set [6]: Evaluation of salts. In kind it is physicochemical. The protocol: Evaluation of Compound 62 (Table 4) salt formation was performed. […] As stated herein, the invention also includes compounds and their salts. Evaluation of Compound 64 (Table 4) salt formation was performed. HCl (mono and bis), p-TSA (bis), BSA (bis), MSA (bis), H2SO4 (mono), and H3PO4 (mono) provided salts with crystallinity. […] As stated herein, the invention also includes compounds and their salts.

The subject of data set [7] is Pseudomonas syringae. Description: Biofilm growth assay, plant pathogens. It counts as cell-based. Particulars: 0.5% Noble agar, 30°C, approximately 24 to 48 hours.
Data set [8] concerns Xanthomonas campestris. Nature of the data set: Biofilm growth assay, plant pathogens. It counts as cell-based. The conditions noted are these: 0.5% Noble agar, 30°C, approximately 24 to 48 hours.
Data set [9] deals with Pectobacterium atrosepticum. Nature of the data set: Biofilm growth assay, plant pathogens. Particulars: 0.5% Noble agar, 30°C, approximately 24 to 48 hours. In kind it is cell-based.
Data set [10] deals with P. aeruginosa biofilm. Description: Biofilm growth assay with antibiotic disks (synergy). In kind it is cell-based. The conditions noted are these: 0.125 µg/ml in the agar with colistin 10 µg disks. The protocol:
INHIBITION OF THE GROWTH OF PREFORMED BIOFILMS. The Biofilm Growth Assay as described in Example VII was performed in round plates with the compounds of the invention in agar on half of the plate and antibiotic disks placed onto the agar containing the compounds of the invention.
The Biofilm Growth Assay was performed as described in Example VIII. 2 to 4 antibiotic disks were placed onto the agar containing a compound of the invention in a line parallel to the line that separates the two agars in one round plate. Appropriate negative and positive control plates were performed as known to those skilled in the art.

The mark [11] stands for this setting: Table 1, concentration that reduces the area of the spreading biofilm vs negative controls by >= 85%, > means not effective at this concentration, read-out: P. aeruginosa.
Setting [12] is: Table 1, concentration that reduces the area of the spreading biofilm vs negative controls by >= 85%, > means not effective at this concentration, read-out: E. coli.
Setting [13] is: Table 4, concentration that reduces the area of the spreading biofilm by >= 85%, read-out: P. aeruginosa.
[14] abbreviates: Table 4, concentration that reduces the area of the spreading biofilm by >= 85%, read-out: E. coli.
Setting [15] is: Table 2, concentration that reduces the area of the spreading biofilm by >= 85%.

Values after ≈ are worked out from the molar mass of the structure shown. Like-named read-outs stand apart in the source and are kept apart here.

Turning to `NC[C@H]1O[C@H](O[C@H]2[C@H](O)[C@@H](O[C@H]3O[C@H](CO)[C@@H](O)[C@H](N)[C@H]3O)[C@H](N)C[C@@H]2N)[C@H](N)C[C@@H]1O` [Tobramycin, tobramcyin, reference compound], in data set [1], the “P. aeruginosa (n=10)” value came out at 4. In addition, the “E. coli (n=10)” value in data set [2] came out at 16. In data set [3], the inhibitory concentration was > 64. The “inhibitory concentration in biofilm growth assay” value in data set [4] is 8.
As for `CC1(C)CC[C@]2(c3cc(O)[nH]n3)CC[C@]3(C)C(=CCC4[C@@]5(C)Cc6c(n[nH]c6N)C(C)(C)C5CC[C@]43C)C2C1` (stereo partly drawn) [Compound 68, 3-((4aS,6aS,6bR,13aR)-12-Amino-2,2,6a,6b,9,9,13a-heptamethyl-2,3,4,4a,5,6,6a,6b,7,8,8a,9,11,13,13a,13b,14,15b-octadecahydro-1H-chryseno[1,2-f]indazol-4a-yl)-1H-pyrazol-5-ol], the IC85 in [1] (read-out: P. aeruginosa (µg/ml)) and in data set [2] (read-out: E. coli (µg/ml)) was 0.5 µg/mL (≈ 0.94 µM) throughout. For the same molecule, the “concentration in the serum of mice” value in data set [5] was > 5000 ng/mL.
Take `CC1(C)CC[C@]2(C(=O)O)CC[C@]3(C)C(=CC[C@@H]4[C@@]5(C)CC[C@H](O)C(C)(C)[C@@H]5CC[C@]43C)[C@@H]2C1` [Oleanolic acid, reference compound]: the IC85 in data set [1] (setting [11]) was 4 µg/mL (≈ 8.76 µM); in data set [2] (setting [12]), > 8 µg/mL. Further, the “P. aeruginosa (n=10)” value in [1] is reported as 8. In [2], the “E. coli (n=10)” value is given as 16. This molecule had an inhibitory concentration in data set [3] of 0.5. For the same molecule, the “inhibitory concentration in biofilm growth assay” value in data set [4] was > 64.
As to `CC(C)(O/N=C(\C(=O)N[C@@H]1C(=O)N2C(C(=O)[O-])=C(C[n+]3ccccc3)CS[C@H]12)c1csc(N)n1)C(=O)O` [Ceftazidime, ceftazidime, reference compound], the “P. aeruginosa (n=10)” value in [1] is 4. In data set [2], the “E. coli (n=10)” value worked out at 0.25. For the same molecule, the inhibitory concentration in data set [3] is > 8. Besides, the “inhibitory concentration in biofilm growth assay” value in data set [4] worked out at 0.5.
Regarding `CN(C)C[C@]12CCC(C)(C)CC1C1=CCC3[C@@]4(C)Cc5c(n[nH]c5N)C(C)(C)C4CC[C@@]3(C)[C@]1(C)CC2` (stereo partly drawn) [Compound 64, (4aS,6aS,6bR,13aR)-4a-((Dimethylamino)methyl)-2,2,6a,6b,9,9,13a-heptamethyl-2,3,4,4a,5,6,6a,6b,7,8,8a,9,11,13,13a,13b,14,15b-octadecahydro-1H-chryseno[1,2-f]indazol-12-amine], the values for the IC85 in data set [1] (setting [13]) and in [2] (setting [14]) were 0.5 µg/mL (≈ 0.987 µM) and 1 µg/mL (≈ 1.97 µM), respectively. In addition, the “concentration in the serum of mice” value in [5] was > 5000 ng/mL. Moreover, in data set [6] (Bis-MSA and mono-H3PO4 salts), the “aqueous solubility compared to freebase” value is reported as “increased aqueous solubility”.
Turning to `CC1(C)CC[C@]2(C(=O)O)CC[C@]3(C)C(=C(c4cccnc4)CC4[C@@]5(C)Cc6c(n[nH]c6N)C(C)(C)[C@@H]5CC[C@]43C)[C@@H]2C1` (stereo partly drawn) [Compound 12, (4aS,6aS,6bR,8aR,13aR,15bS)-12-Amino-2,2,6a,6b,9,9,13a-heptamethyl-15-(pyridin-3-yl)-2,3,4,4a,5,6,6a,6b,7,8,8a,9,11,13,13a,13b,14,15b-octadecahydro-1H-chryseno[1,2-f]indazole-4a-carboxylic acid], the IC85 stood at 0.5 µg/mL (≈ 0.876 µM) in data set [1] (Table 2, concentration that reduces the area of the spreading biofilm by >= 85%, read-out: P. aeruginosa) and 1 µg/mL (≈ 1.75 µM) in data set [2] (Table 2, concentration that reduces the area of the spreading biofilm by >= 85%, read-out: E. coli). Moreover, the “concentration in the serum of mice” value in data set [5] was > 5000 ng/mL.
Turning to `CC1(C)CC[C@]2(C(=O)O)CC[C@]3(C)C(=CCC4[C@@]5(C)Cc6c(n[nH]c6N)C(C)(C)C5CC[C@]43C)C2C1` (stereo in doubt) [Compound 1, (4aS,6aS,6bR,13aR)-12-Amino-2,2,6a,6b,9,9,13a-heptamethyl-2,3,4,4a,5,6,6a,6b,7,8,8a,9,11,13,13a,13b,14,15b-octadecahydro-1H-chryseno[1,2-f]indazole-4a-carboxylic acid], the “growth of the spreading P. aeruginosa biofilm (Figure 1)” value in data set [1] (0.5 µg/ml in the agar, overnight incubation at 37°C) is “prevented the growth of the spreading P. aeruginosa biofilm”. For the same molecule, in [1] (Figure 2 legend), the optimal working concentration came to 0.5 µg/mL. Further, the IC85 was 0.5 µg/mL (≈ 1.01 µM) in data set [1] (setting [11]) and 1 µg/mL (≈ 2.03 µM) in [2] (setting [12]). The “P. aeruginosa” value in [1] (setting [15]) turned out to be 0.5 µg/mL. Also, the “P. aeruginosa (n=10)” value in [1] was 1. Further, the “E. coli” value in [2] (setting [15]) amounted to 1 µg/mL. The “E. coli (n=10)” value in data set [2] was found to be 1. In addition, the inhibitory concentration in data set [3] is 0.25. The “inhibitory concentration in biofilm growth assay” value in data set [4] amounted to 1. Also, the “concentration in the serum of mice” value in [5] is > 5000 ng/mL. The “concentration found to inhibit the spreading biofilms” value in data set [7] was found to be 0.03 µg/mL; in data set [8], 0.5 µg/mL; in [9], 0.06 µg/mL. In data set [10], the “combination with colistin at preventing the growth of P. aeruginosa biofilms (Figure 2)” value was “synergistic”.
As to `CC1(C)CC[C@]2(C(N)=O)CC[C@]3(C)C(=CCC4[C@@]5(C)Cc6c(n[nH]c6N)C(C)(C)C5CC[C@]43C)C2C1` (stereo partly drawn) [Compound 62, (4aS,6aS,6bR,13aR)-12-Amino-2,2,6a,6b,9,9,13a-heptamethyl-2,3,4,4a,5,6,6a,6b,7,8,8a,9,11,13,13a,13b,14,15b-octadecahydro-1H-chryseno[1,2-f]indazole-4a-carboxamide], the IC85 in data set [1] (setting [13]) and in data set [2] (setting [14]) was 1 µg/mL (≈ 2.03 µM) throughout. The “physical properties compared to freebase” value in data set [6] (p-toluenesulfonic acid (mono) and H3PO4 (bis) salts) was “most desirable physical properties”.
